Marks after values point to notes of the source that are not given here.
Experiments:
[1] = tested on: Rhizoctonia oryzae; experiment: Test G: turf brown patch, preventive spray on creeping bent grass seedlings
Procedure: (the causal agent of turf brown patch) and incubated in a saturated atmosphere at 27° C. for 24 h, and then moved to a growth chamber at 27° C. for 5 days, after which disease ratings were made.

[2] = tested on: Pythium aphanidermatum; experiment: Test A: bluegrass pythium blight, preventive spray on bluegrass seedlings
[3] = tested on: Sclerotinia sclerotiorum; experiment: Test C: cucumber white mold, preventive spray on cucumber seedlings
[4] = tested on: Plasmopara viticola; experiment: Test D: grape downy mildew, spray after inoculation of grape seedlings; type: in vivo
Text: Upon removal, disease ratings were made. […] A dash (-) indicates no test results.

[5] = tested on: Colletotrichum orbiculare; experiment: Test B: cucumber Colletotrichum anthracnose, preventive spray on cucumber seedlings
[6] = tested on: Erysiphe graminis f. sp. tritici; experiment: Test L: wheat powdery mildew, preventive spray on wheat seedlings
[7] = tested on: Septoria nodorum; experiment: Test H: wheat glum blotch, preventive spray on wheat seedlings
Procedure: (the causal agent of wheat glum blotch) and incubated in a saturated atmosphere at 20° C. for 48 h, and then moved to a growth chamber at 22° C. for 5 days, after which disease ratings were made.

[8] = tested on: Botrytis cinerea; experiment: Test E: tomato botrytis, preventive spray on tomato seedlings
[9] = tested on: Septoria tritici; experiment: Test J: wheat leaf blotch, preventive spray on wheat seedlings; type: in vivo
Text: A dash (-) indicates no test results.

[10] = tested on: Puccinia recondita f. sp. tritici; experiment: Test K: wheat leaf rust, preventive spray on wheat seedlings
[11] = tested on: Phytophthora infestans; experiment: whole plant or invertebrate; type: in vivo
[12] = 40 ppm (marked *), 100 = 100% disease control, 0 = no control

SMILES	Test G disease control rating ([1]; 40 ppm (*))	Test A disease control rating ([2]; 40 ppm (*))	Test C disease control rating ([3]; 40 ppm (*))	Test D disease control rating ([4]; 40 ppm (*))	Test B disease control rating ([5]; 40 ppm (*))	Test L disease control rating ([6]; 40 ppm (*))	Test H disease control rating ([7]; 40 ppm (*))	Test E disease control rating ([8]; 40 ppm (*))	Test J disease control rating ([9]; 40 ppm (*))	Test K disease control rating ([10]; 40 ppm (*))	Test F disease control rating ([11]; 40 ppm (*))	further results
CCCCn1c(-c2c(F)cc(F)cc2F)c(Cl)nc(-n2ccc(C)n2)c1=O [compound 228]	99* %	0* %	0* %	77* %	98* %	99* %	100* %	100* %	99* %	99* %	0* %	
CCCCn1c(-c2c(F)cc(F)cc2F)c(Cl)nc(-n2cncn2)c1=O [compound 229]	16* %	0* %	0* %	0* %	0* %	88* %	82* %	95* %	57* %	17* %	0* %	
CCCCn1c(-c2c(F)cc(F)cc2F)c(Cl)nc(-n2nccc2C)c1=O [compound 239]	0* %	0* %	0* %	0* %	0* %	0* %	0* %	0* %	19* %	0* %	0* %	
CCCCn1c(-c2c(F)cc(F)cc2F)c(Cl)nc(-c2ccccn2)c1=O [compound 240]	0* %	0* %	0* %	0* %	9* %	98* %	78* %	100* %	93* %	67* %	0* %	
Cc1ccn(-c2nc(Cl)c(-c3c(F)cccc3F)n(CC(C)C)c2=O)n1 [compound 241]	85* %	0* %	0* %	33* %	92* %	93* %	95* %	100* %	100* %	100* %	0* %	
Cc1ccn(-c2nc(C)c(-c3c(F)cccc3F)n(CC(C)C)c2=O)n1 [compound 243]	68* %	0* %	0* %	0* %	0* %	98* %	0* %	100* %	86* %	45* %	0* %	
CC(C)Cn1c(-c2cccnc2Cl)c(Cl)nc(-n2cccn2)c1=O [compound 244]	0* %	0* %	0* %	31* %	0* %	0* %	0* %	42* %	9* %	8* %	0* %	
COc1cccc(-c2c(Cl)nc(-n3cncn3)c(=O)n2CC(C)C)c1 [compound 245]	0* %	0* %	0* %	0* %	0* %	0* %	0* %	0* %	46* %	0* %	0* %	
COc1cccc(-c2c(Cl)nc(-n3cccn3)c(=O)n2CC(C)C)c1 [compound 246]	0* %	0* %	0* %		0* %	78* %	0* %	99* %	26* %	0* %	0* %	Test D disease control rating ([4]; 200 ppm): 9%
Cc1cccc(-c2c(Cl)nc(-n3cncn3)c(=O)n2CC(C)C)c1 [compound 247]	0* %	0* %	0* %	0* %	0* %	0* %	0* %	0* %	35* %	0* %	0* %	
Cc1cccc(-c2c(Cl)nc(-n3cccn3)c(=O)n2CC(C)C)c1 [compound 248]	0* %	0* %	0* %	0* %	0* %	0* %	0* %	66* %	44* %	0* %	0* %	
CC(C)Cn1c(-c2cccc(C#N)c2)c(Cl)nc(-n2cncn2)c1=O [compound 249]												Test G disease control rating [1, 12]: 0* %; Test A disease control rating [2, 12]: 0* %; Test C disease control rating [3, 12]: 0* %; Test D disease control rating [4, 12]: 0* %; Test B disease control rating [5, 12]: 0* %; Test L disease control rating [6, 12]: 0* %; Test H disease control rating [7, 12]: 0* %; Test E disease control rating [8, 12]: 0* %; Test J disease control rating [9, 12]: 26* %; Test K disease control rating [10, 12]: 0* %; Test F disease control rating [11, 12]: 0* %
CC(C)Cn1c(-c2cccc(C#N)c2)c(Cl)nc(-n2cccn2)c1=O [compound 250]												Test G disease control rating [1, 12]: 0* %; Test A disease control rating [2, 12]: 0* %; Test C disease control rating [3, 12]: 0* %; Test D disease control rating [4, 12]: 0* %; Test B disease control rating [5, 12]: 0* %; Test L disease control rating [6, 12]: 0* %; Test H disease control rating [7, 12]: 0* %; Test E disease control rating [8, 12]: 0* %; Test J disease control rating [9, 12]: 30* %; Test K disease control rating [10, 12]: 0* %; Test F disease control rating [11, 12]: 0* %
